Test results as given in US10927350B2, “Methods for generating stem cell-derived beta cells and uses thereof” (President and Fellows of Harvard College, priority 2014, dated 2021).

Tested on: endocrine progenitor cells directed to differentiate into SC-β cells
Experiment: Stimulation index (glucose stimulated insulin secretion) of SC-β cells generated from endocrine progenitor cells in the presence of a JNK inhibitor
Assay type: cell-based, human
Conditions: Stimulation index=[insulin@20 mM glucose]/[insulin@2 mM glucose]; Relative Stim Index=Stim Index/Stim Index of Control; versus SC-β cells generated in the absence of the JNK inhibitor; inhibitor added to Step 6 (FIG. 1, FIG. 2C)
Procedure: Stimulation index=[insulin@20 mM glucose]/[insulin@2 mM glucose]. Relative Stim Index=Stim Index/Stim Index of Control.
FIG. 2C is a schematic illustrating an exemplary method for generating SC-β cells by adding a JNK inhibitor to Step 6 of the exemplary protocol shown in FIG. 2B.
The methods of the present invention contemplate contacting cells (e.g., endocrine progenitor cells or precursors thereof) with effective amounts of one or more agents that decrease the level and/or activity of JNK. An “effective amount” of an agent (or composition containing such agent) refers to the amount sufficient to achieve a desired effect, e.g., when delivered to a cell or subject according to a selected administration form, route, and/or schedule. As will be appreciated by those of ordinary skill in this art, the absolute amount of a particular agent or composition that is effective may vary depending on such factors as the desired biological or pharmacological endpoint, the agent to be delivered, the target tissue, etc. Those of ordinary skill in the art will further understand that an “effective amount” may be contacted with cells or administered in a single dose, or the desired effect may be achieved by use of multiple doses. An effective amount of a composition may be an amount sufficient to reduce the severity of or prevent one or more symptoms or signs of a disorder (e.g., diabetes). […]

O=C1c2ccccc2-c2n[nH]c3cccc1c23 [SP600125, Anthra[1,9-cd]pyrazol-6(2H)-on]
Relative stimulation index of generated SC-β cells: greater stimulation index
